Results: patent EP0183129A1, “Quinolonecarboxylic acid derivatives” (KYORIN PHARMACEUTICAL CO., LTD., priority 1984, dated 1986)
Converted amounts (≈) assume the structure as drawn.

What was measured:
[1] = test system: Klebsiella pneumoniae KY(GN)6445; experiment: In vitro antibacterial activity, MIC (standard strain); format: cell-based; settings: Klebsiella pneumoniae KY(GN)6445; 10^6 cells/ml; standard strain; read-out: MIC
[2] = test system: S. pneumoniae 2950; experiment: In vitro antibacterial activity, MIC (clinical isolates); format: cell-based; settings: Streptococcus pneumoniae; S. pneumoniae 2950; 10^6 cells/ml; clinical isolate; read-out: MIC
[3] = test system: K. pneumoniae 1-220S; experiment: In vitro antibacterial activity, MIC (standard strain); format: cell-based; settings: Klebsiella pneumoniae, 1220S; K. pneumoniae 1-220S; 10^6 cells/ml; standard strain; read-out: MIC
[4] = test system: S. agalactiae 4342; experiment: In vitro antibacterial activity, MIC (clinical isolates); format: cell-based; settings: Streptococcus agalactiae; S. agalactiae 4342; 10^6 cells/ml; clinical isolate; read-out: MIC
[5] = test system: Serratia marcescens IID 618; experiment: In vitro antibacterial activity, MIC (standard strain); format: cell-based; settings: Serratia marcescens, IID618, Serratia marcescens IID 618; 10^6 cells/ml; standard strain; read-out: MIC
[6] = test system: S. faecalis 401; experiment: In vitro antibacterial activity, MIC (clinical isolates); format: cell-based; settings: Enterococcus faecalis; S. faecalis 401; 10^6 cells/ml; clinical isolate; read-out: MIC
[7] = test system: S. agalactiae 4049; experiment: as above; format: cell-based; settings: Streptococcus agalactiae; S. agalactiae 4049; 10^6 cells/ml; clinical isolate; read-out: MIC
[8] = test system: Escherichia coli NIHJ JC-2; experiment: In vitro antibacterial activity, MIC (standard strain); format: cell-based; settings: Escherichia coli, NIHJJC2, Escherichia coli NIHJ JC-2; 10^6 cells/ml; standard strain; read-out: MIC
[9] = test system: S. pyogenes IID 692; experiment: as above; format: cell-based; settings: Streptococcus pyogenes, IID692; S. pyogenes IID 692; 10^6 cells/ml; standard strain; read-out: MIC
[10] = test system: S. faecalis 402; experiment: In vitro antibacterial activity, MIC (clinical isolates); format: cell-based; settings: Enterococcus faecalis; S. faecalis 402; 10^6 cells/ml; clinical isolate; read-out: MIC
[11] = test system: Proteus vulgaris IFO 3167; experiment: In vitro antibacterial activity, MIC (standard strain); format: cell-based; settings: IFO3167; Proteus vulgaris IFO 3167; 10^6 cells/ml; standard strain; read-out: MIC
[12] = test system: Yersinia enterocolitica IID 981; experiment: as above; format: cell-based; settings: IID981; Yersinia enterocolitica IID 981; 10^6 cells/ml; standard strain; read-out: MIC
[13] = test system: C. ramosum; experiment: as above; format: cell-based; settings: Thomasclavelia ramosa; C. ramosum; 10^6 cells/ml; standard strain; read-out: MIC
[14] = test system: P. mirabilis IID 994; experiment: as above; format: cell-based; settings: Proteus mirabilis, IID994; P. mirabilis IID 994; 10^6 cells/ml; standard strain; read-out: MIC
[15] = test system: Pseudomonas aeruginosa V-1; experiment: as above; format: cell-based; settings: V1; Pseudomonas aeruginosa V-1; 10^6 cells/ml; standard strain; read-out: MIC
[16] = test system: Acinetobacter anitratus IID 876; experiment: as above; format: cell-based; settings: Acinetobacter calcoaceticus, IID876, Acinetobacter anitratus IID 876; 10^6 cells/ml; standard strain; read-out: MIC
[17] = test system: S. faecalis 214; experiment: In vitro antibacterial activity, MIC (clinical isolates); format: cell-based; settings: Enterococcus faecalis; S. faecalis 214; 10^6 cells/ml; clinical isolate; read-out: MIC
[18] = test system: S. aureus Smith; experiment: In vitro antibacterial activity, MIC (standard strain); format: cell-based, Staphylococcus aureus; settings: Staphylococcus aureus; S. aureus Smith; 10^6 cells/ml; standard strain; read-out: MIC
[19] = test system: S. marcescens GN 7577; experiment: as above; format: cell-based; settings: Serratia marcescens, GN7577; S. marcescens GN 7577; 10^6 cells/ml; standard strain; read-out: MIC
[20] = test system: S. pyogenes 3107; experiment: In vitro antibacterial activity, MIC (clinical isolates); format: cell-based; settings: Streptococcus pyogenes; S. pyogenes 3107; 10^6 cells/ml; clinical isolate; read-out: MIC
[21] = test system: Salmonella entritidis IID 604; experiment: In vitro antibacterial activity, MIC (standard strain); format: cell-based; settings: IID604; Salmonella entritidis IID 604; 10^6 cells/ml; standard strain; read-out: MIC
[22] = test system: S. pyogenes 4340; experiment: In vitro antibacterial activity, MIC (clinical isolates); format: cell-based; settings: Streptococcus pyogenes; S. pyogenes 4340; 10^6 cells/ml; clinical isolate; read-out: MIC
[23] = test system: B. fragilis 0558; experiment: In vitro antibacterial activity, MIC (standard strain); format: cell-based, Bacteroides fragilis; settings: Bacteroides fragilis, 0558, B. fragilis 0558; 10^6 cells/ml; standard strain; read-out: MIC
[24] = test system: S. pneumoniae 15; experiment: In vitro antibacterial activity, MIC (clinical isolates); format: cell-based; settings: Streptococcus pneumoniae; S. pneumoniae 15; 10^6 cells/ml; clinical isolate; read-out: MIC
[25] = test system: S. pneumoniae IID 552; experiment: In vitro antibacterial activity, MIC (standard strain); format: cell-based; settings: Streptococcus pneumoniae, IID552; S. pneumoniae IID 552; 10^6 cells/ml; standard strain; read-out: MIC
[26] = test system: S. agalactiae 4468; experiment: In vitro antibacterial activity, MIC (clinical isolates); format: cell-based; settings: Streptococcus agalactiae; S. agalactiae 4468; 10^6 cells/ml; clinical isolate; read-out: MIC
[27] = test system: S. agalactiae 4394; experiment: as above; format: cell-based; settings: Streptococcus agalactiae; S. agalactiae 4394; 10^6 cells/ml; clinical isolate; read-out: MIC
[28] = test system: Streptococcus pyogenes S-8; experiment: In vitro antibacterial activity, MIC (standard strain); format: cell-based; settings: S8; Streptococcus pyogenes S-8; 10^6 cells/ml; standard strain; read-out: MIC
[29] = test system: S. agalactiae 4368; experiment: In vitro antibacterial activity, MIC (clinical isolates); format: cell-based; settings: Streptococcus agalactiae; S. agalactiae 4368; 10^6 cells/ml; clinical isolate; read-out: MIC
[30] = test system: S. faecalis 49; experiment: as above; format: cell-based; settings: Enterococcus faecalis; S. faecalis 49; 10^6 cells/ml; clinical isolate; read-out: MIC
[31] = test system: S. pyogenes 3102; experiment: as above; format: cell-based; settings: Streptococcus pyogenes; S. pyogenes 3102; 10^6 cells/ml; clinical isolate; read-out: MIC

SMILES: CCNCC1CCN(c2c(F)cc3c(=O)c(C(=O)O)cn(CC)c3c2F)C1 (stereo not shown) [Ref.1, 1-Ethyl-7-(3-ethylaminomethyl-1-pyrrolidinyl)-6,8-difluoro-1,4-dihydro-4-oxo-3-quinolinecarboxylic acid, reference compound]
- MIC [1]: 0.2 µg/mL (≈ 0.527 µM)
- MIC [2]: 0.39 µg/mL (≈ 1.03 µM)
- MIC [3]: 0.39 µg/mL (≈ 1.03 µM)
- MIC [4]: 0.39 µg/mL (≈ 1.03 µM)
- MIC [5]: 0.39 µg/mL (≈ 1.03 µM)
- MIC [6]: 0.39 µg/mL (≈ 1.03 µM)
- MIC [7]: 0.39 µg/mL (≈ 1.03 µM)
- MIC [8]: 0.1 µg/mL (≈ 0.264 µM)
- MIC [9]: 0.39 µg/mL (≈ 1.03 µM)
- MIC [10]: 0.78 µg/mL (≈ 2.06 µM)
- MIC [11]: 0.05 µg/mL (≈ 0.132 µM)
- MIC [12]: 0.39 µg/mL (≈ 1.03 µM)
- MIC [13]: 6.25 µg/mL (≈ 16.5 µM)
- MIC [14]: 0.2 µg/mL (≈ 0.527 µM)
- MIC [15]: 6.25 µg/mL (≈ 16.5 µM)
- MIC [16]: 0.78 µg/mL (≈ 2.06 µM)
- MIC [17]: 0.39 µg/mL (≈ 1.03 µM)
- MIC [18]: 0.1 µg/mL (≈ 0.264 µM)
- MIC [19]: 6.25 µg/mL (≈ 16.5 µM)
- MIC [20]: 0.1 µg/mL (≈ 0.264 µM)
- MIC [21]: 0.39 µg/mL (≈ 1.03 µM)
- MIC [22]: 0.2 µg/mL (≈ 0.527 µM)
- MIC [23]: 6.25 µg/mL (≈ 16.5 µM)
- MIC [24]: 0.2 µg/mL (≈ 0.527 µM)
- MIC [25]: 0.2 µg/mL (≈ 0.527 µM)
- MIC [26]: 0.39 µg/mL (≈ 1.03 µM)
- MIC [27]: 0.78 µg/mL (≈ 2.06 µM)
- MIC [28]: 0.2 µg/mL (≈ 0.527 µM)
- MIC [29]: 0.2 µg/mL (≈ 0.527 µM)
- MIC [30]: 0.39 µg/mL (≈ 1.03 µM)
- MIC [31]: 0.2 µg/mL (≈ 0.527 µM)
